# Experimental data reported in ChEMBL document CHEMBL5506059, “Cyanomethylquinolones as a New Class of Potential Multitargeting Broad-Spectrum Antibacterial Agents” (J Med Chem, 2024).
# Active and inactive are the calls of the source. No cut-off for these calls is given here.
# How the values were obtained:
# Pseudomonas aeruginosa [1] = experiment: Antibacterial activity against Pseudomonas aeruginosa ATCC 27853 assessed as inhibition of bacterial growth incubated for 24 hrs; type: functional
# [2] = Hemolytic activity in human Red blood cells at 256 ug/ml measured after 1.5 hrs by absorbance based assay relative to control; type: toxicity, cell-based, Erythrocyte; conditions: red blood cells (erythrocytes), at 256 µg/mL, read-out: Activity
# Streptococcus pyogenes = experiment: Antibacterial activity against Streptococcus pyogenes ATCC 19615 assessed as inhibition of bacterial growth incubated for 24 hrs; type: functional
# Staphylococcus aureus [3] = experiment: Antibacterial activity against Staphylococcus aureus ATCC 6538 assessed as inhibition of bacterial growth incubated for 24 hrs; type: functional
# Staphylococcus aureus [4] = experiment: Antibacterial activity against methicillin resistant Staphylococcus aureus clinical isolate assessed as inhibition of bacterial growth at 1 times MIC incubated under dark condition and measured upto 5 hrs relative to control; type: functional
# Pseudomonas aeruginosa [5] = experiment: Antibacterial activity against Pseudomonas aeruginosa assessed as reduction in metabolic activity by measuring reduction in fluorescence intensity at 0.5 to 2 times MIC incubated for 6 hrs by alamar blue assay; type: functional, organism-based
# Staphylococcus aureus [6] = experiment: Antibacterial activity against Staphylococcus aureus ATCC 25923 assessed as inhibition of bacterial growth incubated for 24 hrs; type: functional
# Acinetobacter baumannii = experiment: Antibacterial activity against Acinetobacter baumannii clinical isolate assessed as inhibition of bacterial growth incubated for 24 hrs; type: functional
# Staphylococcus aureus [7] = experiment: Antibacterial activity against methicillin resistant Staphylococcus aureus clinical isolate assessed as inhibition of bacterial growth incubated for 24 hrs; type: functional
# Escherichia coli [8] = experiment: Antibacterial activity against Escherichia coli clinical isolate assessed as inhibition of bacterial growth incubated for 24 hrs; type: functional
# Pseudomonas aeruginosa [9] = experiment: Induction of intracellular ROS generation in Pseudomonas aeruginosa assessed as increase in fluorescence intensity at 2 ug/ml incubated for 6 hrs in presence of N-acetyl-L-cysteine by DCFH-DA dye based fluorescence analysis; type: functional, organism-based; conditions: dose 2.0 µg/ml
# Escherichia coli [10] = experiment: Antibacterial activity against Escherichia coli ATCC 25922 assessed as inhibition of bacterial growth incubated for 24 hrs; type: functional
# Pseudomonas aeruginosa [11] = experiment: Induction of intracellular ROS generation in Pseudomonas aeruginosa assessed as increase in fluorescence intensity at 2 ug/ml incubated for 6 hrs by DCFH-DA dye based fluorescence analysis; type: functional, organism-based; conditions: dose 2.0 µg/ml
# Calf thymus DNA [12] = experiment: Binding affinity to calf thymus DNA assessed as DNA-compound complex formation by measuring increase in absorption of DNA at 260 nm at 0 to 3.3 x 10^-8mol/L by UV absorption spectra based analysis; type: nucleic-acid assay; conditions: Bos taurus; dose 0-3.3 10^-8mol/L
# Staphylococcus aureus [13] = experiment: Antibacterial activity against methicillin resistant Staphylococcus aureus assessed as reduction in metabolic activity by measuring reduction in fluorescence intensity at 0.5 to 2 times MIC incubated for 6 hrs by alamar blue assay; type: functional, organism-based
# Enterococcus faecalis [14] = experiment: Antibacterial activity against vancomycin-resistant Enterococcus faecalis clinical isolate p1-2007225053 assessed as inhibition of bacterial growth incubated for 24 hrs; type: functional
# Staphylococcus aureus [15] = experiment: Antibacterial activity against Staphylococcus aureus CMCC(B)26003 assessed as inhibition of bacterial growth incubated for 24 hrs; type: functional
# Pseudomonas aeruginosa [16] = experiment: Antibiofilm activity in Pseudomonas aeruginosa assessed as biofilm eradication measured after 24 hrs by crystal violet staining based analysis; type: functional, organism-based; conditions: dose 1-2 µg/ml
# Calf thymus DNA [17] = experiment: Competitive binding affinity to calf thymus DNA assessed as displacement of neutral red from DNA-neutral red complex by measuring reduction in absorbance at 540 nm at 0 to 2.9x10^-8 mol/L by UV absorption spectroscopy; type: nucleic-acid assay; conditions: Bos taurus; dose 0-2.9 10^-8mol/L
# Enterococcus faecium = experiment: Antibacterial activity against Enterococcus faecium ATCC 19434 assessed as inhibition of bacterial growth incubated for 24 hrs; type: functional
# Erythrocyte = experiment: Hemolytic activity in human Red blood cells assessed as concentration required for 5% hemolysis measured after 1.5 hrs by absorbance based assay; type: toxicity, cell-based
# Staphylococcus aureus [18] = experiment: Antibacterial activity against Staphylococcus aureus ATCC 29213 assessed as inhibition of bacterial growth incubated for 24 hrs; type: functional
# Staphylococcus aureus [19] = experiment: Antibacterial activity against Staphylococcus aureus ATCC 12600 assessed as inhibition of bacterial growth incubated for 24 hrs; type: functional
# Pseudomonas aeruginosa [20] = experiment: Resistance development in Pseudomonas aeruginosa assessed as increase in MIC measured after 20 days; type: functional, organism-based; conditions: time 20.0 day
# Staphylococcus aureus [21] = experiment: Antibiofilm activity in methicillin resistant Staphylococcus aureus assessed as biofilm eradication measured after 24 hrs by crystal violet staining based analysis; type: functional, organism-based; conditions: dose 1-2 µg/ml
# Staphylococcus aureus [22] = experiment: Resistance development in methicillin resistant Staphylococcus aureus assessed as increase in MIC measured after 20 days; type: functional, organism-based; conditions: time 20.0 day
# Klebsiella pneumoniae = experiment: Antibacterial activity against Klebsiella pneumoniae clinical isolate assessed as inhibition of bacterial growth incubated for 24 hrs; type: functional
# [23] = tested on: Staphylococcus epidermidis; experiment: Antibacterial activity against Staphylococcus epidermidis ATCC 12228 assessed as inhibition of bacterial growth incubated for 24 hrs; type: functional
# Calf thymus DNA [24] = experiment: Binding affinity to calf thymus DNA assessed as DNA-compound complex formation by measuring hyperchromism at 0 to 3.3 x 10^-8mol/L by UV absorption spectra based analysis; type: nucleic-acid assay; conditions: Bos taurus; dose 0-3.3 10^-8mol/L
# Pseudomonas aeruginosa [25] = experiment: Antibacterial activity against Pseudomonas aeruginosa clinical isolate assessed as inhibition of bacterial growth incubated for 24 hrs; type: functional
# Staphylococcus aureus [26] = experiment: Antibacterial activity against methicillin-resistant Staphylococcus aureus ATCC 43300 assessed as inhibition of bacterial growth incubated for 24 hrs; type: functional
# Enterococcus faecalis [27] = experiment: Antibacterial activity against Enterococcus faecalis clinical isolate assessed as inhibition of bacterial growth incubated for 24 hrs; type: functional
# Enterococcus faecalis [28] = experiment: Antibacterial activity against vancomycin-resistant Enterococcus faecalis clinical isolate p1-2007226001 assessed as inhibition of bacterial growth incubated for 24 hrs; type: functional
# Staphylococcus aureus [29] = experiment: Antibacterial activity against Staphylococcus aureus CMCC(B)26001 assessed as inhibition of bacterial growth incubated for 24 hrs; type: functional
# Staphylococcus aureus [30] = experiment: Antibacterial activity against Staphylococcus aureus clinical isolate assessed as inhibition of bacterial growth incubated for 24 hrs; type: functional
# Calf thymus DNA [31] = experiment: Binding affinity to calf thymus DNA assessed as disruption of DNA confirmation by measuring blue shift at 0 to 3.3x10^-8mol/L by UV absorption spectra based analysis; type: nucleic-acid assay; conditions: Bos taurus; dose 0-3.3 10^-8mol/L
# Streptococcus pneumoniae = experiment: Antibacterial activity against Streptococcus pneumoniae ATCC 6305 assessed as inhibition of bacterial growth incubated for 24 hrs; type: functional
# Pseudomonas aeruginosa [32] = experiment: Resistance development in Pseudomonas aeruginosa assessed as fold increase in MIC measured after 20 days relative to control; type: functional; conditions: time 20 day
# Staphylococcus aureus [33] = experiment: Resistance development in methicillin resistant Staphylococcus aureus assessed as fold increase in MIC measured after 20 days relative to control; type: functional; conditions: time 20 day
compound,measurement,setting,value
C#CCn1cc(C(=O)O)c(=O)c2cc(F)c(CC#N)cc21,MIC,Pseudomonas aeruginosa [1],1 µg/mL
same,"hemolysis at 1.5 h, 256 ug/ml",[2],< 1%
same,MIC,Streptococcus pyogenes,1 µg/mL
same,MIC,Staphylococcus aureus [3],2 µg/mL
same,inhibition (INH),Staphylococcus aureus [4],~100%
same,Activity,Pseudomonas aeruginosa [5],Active
same,MIC,Staphylococcus aureus [6],0.25 µg/mL
same,MIC,Acinetobacter baumannii,0.5 µg/mL
same,MIC,Staphylococcus aureus [7],0.5 µg/mL
same,MIC,Escherichia coli [8],1 µg/mL
same,Activity,Pseudomonas aeruginosa [9],inactive
same,MIC,Escherichia coli [10],0.5 µg/mL
same,Activity,Pseudomonas aeruginosa [11],Active
same,Activity,Calf thymus DNA [12],Active
same,Activity,Staphylococcus aureus [13],Active
same,MIC,Enterococcus faecalis [14],8 µg/mL
same,MIC,Staphylococcus aureus [15],2 µg/mL
same,Activity,Pseudomonas aeruginosa [16],Dose-Dependent Effect
same,Activity,Calf thymus DNA [17],Active
same,MIC,Enterococcus faecium,4 µg/mL
same,HC5,Erythrocyte,> 10000 µg/mL
same,MIC,Staphylococcus aureus [18],1 µg/mL
same,MIC,Staphylococcus aureus [19],16 µg/mL
same,Activity,Pseudomonas aeruginosa [20],inactive
same,Activity,Staphylococcus aureus [21],Dose-Dependent Effect
same,Activity,Staphylococcus aureus [22],inactive
same,MIC,Klebsiella pneumoniae,2 µg/mL
same,MIC,[23],4 µg/mL
same,Activity,Calf thymus DNA [24],Active
same,MIC,Pseudomonas aeruginosa [25],0.25 µg/mL
same,MIC,Staphylococcus aureus [26],4 µg/mL
same,MIC,Enterococcus faecalis [27],1 µg/mL
same,MIC,Enterococcus faecalis [28],16 µg/mL
same,MIC,Staphylococcus aureus [29],4 µg/mL
same,MIC,Staphylococcus aureus [30],256 µg/mL
same,Activity,Calf thymus DNA [31],Active
same,MIC,Streptococcus pneumoniae,32 µg/mL
NC1CCN(c2c(F)cc3c(=O)c(C(=O)O)cn(C4CC4)c3c2Cl)C1 (stereo not given) [CLINAFLOXACIN],MIC,Pseudomonas aeruginosa [1],0.5 µg/mL
same,fold change (FC),Pseudomonas aeruginosa [32],16
same,MIC,Staphylococcus aureus [6],0.5 µg/mL
same,MIC,Acinetobacter baumannii,0.5 µg/mL
same,MIC,Staphylococcus aureus [7],1 µg/mL
same,MIC,Escherichia coli [8],0.25 µg/mL
same,MIC,Escherichia coli [10],0.25 µg/mL
same,fold change (FC),Staphylococcus aureus [33],8
same,MIC,Staphylococcus aureus [18],0.5 µg/mL
same,MIC,Klebsiella pneumoniae,0.5 µg/mL
same,MIC,Pseudomonas aeruginosa [25],0.5 µg/mL
same,MIC,Enterococcus faecalis [27],4 µg/mL
same,MIC,Staphylococcus aureus [30],0.5 µg/mL
